Tests used:
HCV NS5B genotype 1b = biological target: T1, HCV NS5B genotype 1b (Hepatitis C virus genotype 1b, UniProt Q9WMX2); assay: 3D-SCREEN assay (NS5B 3D-Screen platform, luciferase reporter gene); assay type: cell-based; conditions: EC50_3DS_NS5B
T1 construct: The protein was expressed with a 21 amino acid C-terminal deletion to remove transmembrane domain; expressed in transfected cells; host or cells: Huh-7
Method in brief: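 Huh-7 cells transiently co-transfected with NS5BΔ21/Gal4-DBD, 3D-Sensor peptide I4/VP16 and firefly luciferase reporter. Compounds added 2 h after seeding, 1% DMSO final, 24 h incubation. Luciferase luminescence read; % inhibition relative to no-compound signal.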

HCV replicon Luc Neo ET = assay: Luc Neo ET Replicon assay; assay type: cell-based, Hepatitis C virus; conditions: Table 3, titled RdRp enzyme assay results, EC50_Replicon LucneoET, 72 hours with compound, luciferase
Procedure: Human Hepatoma Huh-7 cell line was maintained in DMEM/HAMF-12 supplemented with 10% SVF, 4 mM glutamine, […] Na pyruvate, 1% penistreptomycine. HCV replicon containing Huh-7 cell lines Huh-9.13 and Luc Neo ET (Reblikon) were maintained in DMEM supplemented with 10% SVF, 2 mM glutamine, and 1×NEAA, 100 U/ml penicillin, and 100 μg/ml streptomycine. Replicon cells were maintained in medium supplemented with 1 mg/ml G418 for replicon Huh-9.13 and 0.5 mg/ml for Luc Neo et replicon unless indicated otherwise. Huh-7 and HCV replicon cell lines were maintained at 37° C. and 5% CO2 in a humidified atmosphere. Cells were dissociated at sub confluence with trypsin EDTA 1×.
Replicon Luc Neo ET is a bicistronic expression constructs (Lohmann et al, 1999, Science 285, 110-113). In brief, the structural genes of the HCV genome were replaced by heterologous sequences; the gene encoding the neomycin phosphotransferase (NPT) and the internal ribosome entry site (IRES) of the encephalomyocarditis virus (EMCV). The bicistronic construct is therefore composed of the following elements: HCV-IRES nucleotides 1-389, the NPT gene, the EMCV-IRES directing translation of downstream HCV sequences from NS2 or NS3 up to the authentic 3′ end of the genome. HCV Polyprotein harbours the cell culture adaptive mutations E1202G, T1280I, K1846T. G418-resistance is only possible with cells containing high amounts of replicon.
Cells were dissociated the day before addition of compounds and seeded in 96 well-plates at a final concentration of 77 777.77 cells.ml^−1.well^−2 in 90 μl final volume of culture medium per well and were maintained at 37° C. and 5% CO2 in a humidified atmosphere for 24 hours. 10 μl of compounds to be tested were added 24 hours after seeding. Final concentration of DMSO was 1%. Cells were incubated in the presence of compounds for 72 hours after which expression of firefly luciferase reporter gene was quantified. Briefly, culture medium was removed and cells were lysed by addition of 100 μl of lysis buffer containing 125 mM Tris Phosphate ph 7.8, 10 mM EDTA, 5 mM DTT, 50% glycerol and 5% Triton. Plates were vortexed 10 min at 1300 rpm. Cell lysat was transferred in OpaqueWhite Assay 96 well Flat Bottom plates. 100 μl of luciferin solution 1× were added to each well. Luciferin solution contained 40 mM Tris Phosphate ph 7.8, 0.2 mM EDTA, 67 mM DTT, 2.14 mM MgCl2, 5.4 mM MgSO4, 4.7×10^−4 M luciferin, 5.3×10^−4 M ATP and 2.7×10^−4 M Acetyl co enzyme A. Luminescence was immediately measured with Berthold Microlumat Plus LB 96V luminometer with an integration of 0.5 sec Inhibition was calculated using the formula:
% inhibition=1−[(RLUsample−RLUbackground)/(RLUsignal−RLUbackground)]

[1] = Table 1, 3D-SCREEN assay results, Huh-7 cells, 24 hours with compound, firefly luciferase reporter
[2] = Table 2, titled Replicon assay results

Work on `CC(=O)OC1=C(C(=O)c2ccc(C(C)C)cc2)C(c2ccc(C(C)C)cc2)N(c2ccc(C)nn2)C1=O` (stereo not drawn) [Example 56, Acetic acid 4-(4-isopropyl-benzoyl)-5-(4-isopropyl-phenyl)-1-(6-methyl-pyridazin-3-yl)-2-oxo-2,5-hydro-1H-pyrrol-3-yl ester] yielded an EC50 (HCV NS5B genotype 1b; [1]) of 500 nM, an EC50 (HCV replicon Luc Neo ET; Hepatitis C virus, 72 h) of 600 nM and a melting point of 215 °C.

For `CC(C)c1ccc(C(=O)C2=C(O)C(=O)N(c3ccc(Sc4ccc([N+](=O)[O-])cc4)nn3)C2c2ccc(OC(F)(F)F)cc2)cc1` (stereo not drawn) [Example 119, 3-hydroxy-4-(4-isopropyl-benzoyl)-1-[6-(4-nitro-phenylsulfanyl)-pyridazin-3-yl]-5-(4-trifluoromethoxy-phenyl)-1,5-dihydro-pyrrol-2-one], the EC50 (HCV NS5B genotype 1b; [2]) was < 1000 nM, the EC50 (HCV replicon Luc Neo ET; Hepatitis C virus, 72 h) was < 10000 nM and the melting point was 194 to 209 °C.

In the case of `Cc1ccc(N2C(=O)C([O-])=C(C(=O)c3ccc(C(C)C)cc3)C2c2ccc(C(C)C)cc2)cn1.[Na+]` (stereo not drawn) [Example 67, Sodium; 4-(4-isopropyl-benzoyl)-5-(4-isopropyl-phenyl)-1-(6-methyl-pyridin-3-yl)-2-oxo-2,5-dihydro-1H-pyrrol-3-olate], the EC50 (HCV NS5B genotype 1b; [1]) is reported as 3000 nM, the EC50 (HCV replicon Luc Neo ET) is reported as < 10000 nM and the melting point is reported as 215 °C.

With `C=C(C)c1ccc(C2C(C(=O)c3ccc(C(C)C)cc3)=C(O)C(=O)N2c2ccc(C)nn2)cc1` (stereo not drawn) [Example 160, 3-hydroxy-5-(4-isopropenyl-phenyl)-4-(4-isopropyl-benzoyl)-1-(6-methyl-pyridazin-3-yl)-1,5-dihydro-pyrrol-2-one] the EC50 (HCV NS5B genotype 1b; [2]) was < 1000 nM, the EC50 (HCV replicon Luc Neo ET; Hepatitis C virus, 72 h) was < 10000 nM and the melting point was 274 °C.

With `Cc1ccc(N2C(=O)C(O)=C(C(=O)c3ccc(C(C)C)cc3)C2c2ccc(OC(F)F)cc2)nn1` (stereo not drawn) [Example 88, 5-(4-difluoromethoxy-phenyl)-3-hydroxy-4-(4-isopropyl-benzoyl)-1-(6-methyl-pyridazin-3-yl)-1,5-dihydro-pyrrol-2-one] the EC50 (HCV NS5B genotype 1b; [2]) was < 1000 nM, the EC50 (HCV replicon Luc Neo ET; Hepatitis C virus, 72 h) was < 1000 nM and the melting point was 263 to 265 °C.

In the case of `CC(C)c1ccc(C(=O)C2=C(O)C(=O)N(c3cccn(C)c3=O)C2c2ccc(OC(F)(F)F)cc2)cc1` (stereo not drawn) [Example 130, 3-[3-hydroxy-4-(4-isopropyl-benzoyl)-2-oxo-5-(4-trifluoromethoxy-phenyl)-2,5-dihydro-pyrrol-1-yl]-1-methyl-1H-pyridin-2-one], the EC50 (HCV NS5B genotype 1b; [2]) is reported as < 10000 nM, the EC50 (HCV replicon Luc Neo ET; Hepatitis C virus, 72 h) is reported as < 10000 nM and the melting point is reported as 207 °C.

In the case of `Cc1ccc(N2C(=O)C(O)=C(C(=O)c3ccc(C(C)C)cc3)C2c2ccc(OC(C)C)nc2)nn1` (stereo not drawn) [Example 165, 3-hydroxy-5-(6-isopropoxy-pyridin-3-yl)-4-(4-isopropyl-benzoyl)-1-(6-methyl-pyridazin-3-yl)-1,5-dihydro-pyrrol-2-one], the EC50 (HCV NS5B genotype 1b; [2]) is reported as < 1000 nM, the EC50 (HCV replicon Luc Neo ET; Hepatitis C virus, 72 h) is reported as < 1000 nM and the melting point is reported as 282 °C.

With `Cc1ccc(N2C(=O)C(Cl)=C(C(=O)c3ccc(C(C)C)cc3)C2c2ccc(OC(F)(F)F)cc2)nn1` (stereo not drawn) [Example 138, 3-chloro-4-(4-isopropyl-benzoyl)-1-(6-methyl-pyridazin-3-yl)-5-(4-trifluoromethoxy-phenyl)-1,5-dihydro-pyrrol-2-one] the EC50 (HCV NS5B genotype 1b; [2]) was < 10000 nM, the EC50 (HCV replicon Luc Neo ET; Hepatitis C virus, 72 h) was < 10000 nM and the melting point was 293 °C.

For `COc1ccc(N2C(=O)C(O)=C(C(=O)c3ccc(C(C)C)cc3)C2c2ccc(OC(F)(F)F)cc2)nn1` (stereo not drawn) [Example 129, 3-hydroxy-4-(4-isopropyl-benzoyl)-1-(6-methoxy-pyridazin-3-yl)-5-(4-trifluoromethoxy-phenyl)-1,5-dihydro-pyrrol-2-one], the EC50 (HCV NS5B genotype 1b; [2]) was < 1000 nM, the EC50 (HCV replicon Luc Neo ET; Hepatitis C virus, 72 h) was < 10000 nM and the melting point was 271 °C.

With `Cc1ccc(C(=O)C2=C(O)C(=O)N(c3ccc(C)nn3)C2c2ccc(OC(F)(F)F)cc2)cc1` (stereo not drawn) [Example 22, 3-hydroxy-4-(4-methyl-benzoyl)-1-(6-methyl-pyridazin-3-yl)-5-(4-trifluoromethoxy-phenyl)-1,5-dihydro-pyrrol-2-one] the EC50 (HCV NS5B genotype 1b; [1]) was 600 nM, the EC50 (HCV replicon Luc Neo ET; Hepatitis C virus, 72 h) was 500 nM and the melting point was 269 °C.

For `CCc1ccc(C2C(C(=O)c3ccc(C(C)C)cc3)=C(O)C(=O)N2c2ccc(C)nn2)cc1` (stereo not drawn) [Example 105, 5-(4-ethyl-phenyl)-3-hydroxy-4-(4-isopropyl-benzoyl)-1-(6-methyl-pyridazin-3-yl)-1,5-dihydro-pyrrol-2-one], the EC50 (HCV NS5B genotype 1b; [2]) was < 1000 nM, the EC50 (HCV replicon Luc Neo ET; Hepatitis C virus, 72 h) was < 1000 nM and the melting point was 282 to 284 °C.

With `Cc1ccc(C(=O)C2=C(O)C(=O)N(c3ccc(C)nn3)C2c2ccc(C(C)C)cc2)cc1` (stereo not drawn) [Example 8, 3-hydroxy-5-(4-isopropyl-phenyl)-4-(4-methyl-benzoyl)-1-(6-methyl-pyridazin-3-yl)-1,5-dihydro-pyrrol-2-one] the EC50 (HCV NS5B genotype 1b; [1]) was 2000 nM, the EC50 (HCV replicon Luc Neo ET; Hepatitis C virus, 72 h) was 3000 nM and the melting point was 279 °C.

With `Cc1ccc(N2C(=O)C(O)=C(C(=O)c3ccc(N4CCOCC4)cc3)C2c2ccc(OC(F)(F)F)cc2)nn1` (stereo not drawn) [Example 80, 3-hydroxy-1-(6-methyl-pyridazin-3-yl)-4-(4-morpholin-4-yl-benzoyl)-5-(4-trifluoromethoxy-phenyl)-1,5-dihydro-pyrrol-2-one] the EC50 (HCV NS5B genotype 1b; [1]) was 2000 nM, the EC50 (HCV replicon Luc Neo ET; Hepatitis C virus, 72 h) was < 10000 nM and the melting point was 234 °C.

For `Cc1ccc(N2C(=O)C(O)=C(C(=O)c3ccc(C(C)C)cc3)C2c2ccc(C(C)C)cc2)nn1` (stereo not drawn) [Example 20, 3-hydroxy-4-(4-isopropyl-benzoyl)-5-(4-isopropyl-phenyl)-1-(6-methyl-pyridazin-3-yl)-1,5-dihydro-pyrrol-2-one], the EC50 (HCV NS5B genotype 1b; [1]) was 400 nM, the EC50 (HCV replicon Luc Neo ET; Hepatitis C virus, 72 h) was 100 nM and the melting point was 271 °C.

In the case of `CC(=O)OC1=C(C(=O)c2ccc(C)cc2)C(c2ccc(OC(F)(F)F)cc2)N(c2ccc(C)nn2)C1=O` (stereo not drawn) [Example 76, Acetic acid 4-(4-methyl-benzoyl)-1-(6-methyl-pyridazin-3-yl)-2-oxo-5-(4-trifluoromethoxy-phenyl)-2,5-dihydro-1H-pyrrol-3-yl ester], the EC50 (HCV NS5B genotype 1b; [1]) is reported as 600 nM, the EC50 (HCV replicon Luc Neo ET; Hepatitis C virus, 72 h) is reported as < 10000 nM and the melting point is reported as 165 to 166.5 °C.

For `Cc1ccc(C(=O)C2=C(O)C(=O)N(c3ccc(C)nn3)[C@@H]2c2ccc(OC(F)(F)F)cc2)cc1` [Example 199, 3-hydroxy-4-(4-methyl-benzoyl)-1-(6-methyl-pyridazin-3-yl)-5(R)-(4-trifluoromethoxy-phenyl)-1,5-dihydro-pyrrol-2-one], the EC50 (HCV NS5B genotype 1b; [2]) was < 1000 nM, the EC50 (HCV replicon Luc Neo ET; Hepatitis C virus, 72 h) was < 1000 nM and the melting point was 215 °C.

For `Cc1ccc(N2C(=O)C(O)=C(C(=O)c3ccc(CC(C)C)cc3)C2c2ccc(OC(F)(F)F)cc2)nn1` (stereo not drawn) [Example 131, 3-hydroxy-4-(4-isobutyl-benzoyl)-1-(6-methyl-pyridazin-3-yl)-5-(4-trifluoromethoxy-phenyl)-1,5-dihydro-pyrrol-2-one], the EC50 (HCV NS5B genotype 1b; [2]) was < 1000 nM, the EC50 (HCV replicon Luc Neo ET; Hepatitis C virus, 72 h) was < 10000 nM and the melting point was 260 °C.

With `Cc1ccc(N2C(=O)C(O)=C(C(=O)c3ccc(C(C)(C)C)cc3)C2c2ccc(OC(F)(F)F)cc2)nn1` (stereo not drawn) [Example 123, 4-(4-tert-butyl-benzoyl)-3-hydroxy-1-(6-methyl-pyridazin-3-yl)-5-(4-trifluoromethoxy-phenyl)-1,5-dihydro-pyrrol-2-one] the EC50 (HCV NS5B genotype 1b; [2]) was < 1000 nM, the EC50 (HCV replicon Luc Neo ET; Hepatitis C virus, 72 h) was < 1000 nM and the melting point was 262 to 265 °C.

In the case of `CCc1ccc(C(=O)C2=C(O)C(=O)N(c3ccc(C)nn3)C2c2ccc(OC(F)(F)F)cc2)cc1` (stereo not drawn) [Example 102, 4-(4-ethyl-benzoyl)-3-hydroxy-1-(6-methyl-pyridazin-3-yl)-5-(4-trifluoromethoxy-phenyl)-1,5-dihydro-pyrrol-2-one], the EC50 (HCV NS5B genotype 1b; [2]) is reported as < 1000 nM, the EC50 (HCV replicon Luc Neo ET; Hepatitis C virus, 72 h) is reported as < 1000 nM and the melting point is reported as 263 to 267 °C.

Source: patent US20120128630A1, “1-(6 MEMBERS AZO-HETEROCYCLIC)-PYRROLIN-2-ONE COMPOUNDS AS INHIBITORS OF HEPATITIS C NS5B POLYMERASE, THE PHARAMACEUTICAL COMPOSITION THEREOF AND THEIR THERAPEUTIC USE” (priority 2009, published 2012)
